# Measurements: patent publication US20100255015A1 (priority 2007, published 2010)
# Read-outs that look alike come from different tables or passages of the source.
# Assays:
# Z5B71 T cell clone = experiment: T cell activation assay: stimulation of the Z5B71 T cell clone, IFN-γ ELISA; format: cell-based, human; conditions: antigen-loaded APCs, 36 hr
# CD1b = molecular target: T1, CD1b (Homo sapiens, UniProt P29016); format: cell-based; conditions: Z5B71 clone
# T1 construct: expressed in transfected cells; host or cells: THP-1 (human promyelocytic), BCMGS-Neo / -Hygro vectors, electroporation
# [1] = tested on: PBMCs with autologous DCs; format: cell-based, human
# [2] = tested on: CD1b-restricted T cell clones Z5B71, Z4B27, Z5B11; experiment: DCs pulsed with heat-killed or infected with living M. tuberculosis, recognition by CD1b-restricted T cell clones; format: cell-based, human
# Experimental: Pulsing and infection of DCs with M. tuberculosis. M. tuberculosis was killed at 80° C. for 20 min and incubated in RPMI-1640 medium containing 10% FCS for 2 hours at 37° C. with DCs (3×10^4/well) before addition of T cells (10^5/well in triplicate). DCs were infected as previously described De Libero et al. (2005) Immunity 22, 763-72 and IFN-γ release was monitored by ELISA.
# T1 sequence (P61769 21-119): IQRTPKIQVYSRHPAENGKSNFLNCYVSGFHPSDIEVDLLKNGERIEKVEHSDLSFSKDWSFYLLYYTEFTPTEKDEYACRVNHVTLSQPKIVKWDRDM
# T1 sequence (P29016 18-333): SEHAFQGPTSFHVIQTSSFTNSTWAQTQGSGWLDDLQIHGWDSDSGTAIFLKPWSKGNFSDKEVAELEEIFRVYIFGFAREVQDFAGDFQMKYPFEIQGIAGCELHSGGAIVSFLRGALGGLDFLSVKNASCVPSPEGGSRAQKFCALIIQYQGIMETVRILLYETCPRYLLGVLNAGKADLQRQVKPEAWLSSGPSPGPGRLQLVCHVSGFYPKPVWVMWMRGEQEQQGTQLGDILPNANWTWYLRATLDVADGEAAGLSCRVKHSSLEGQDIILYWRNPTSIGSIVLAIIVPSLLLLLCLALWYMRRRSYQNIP
Substance,stimulation of the Z5B71 T cell clone (IFN-γ release) (Z5B71 T cell clone),T cell response with APCs expressing CD1b and CD1e versus only CD1b (IFN-γ release) (CD1b; THP-1-CD1b vs THP-1-CD1b-CD1e),"CD1 restriction: T cell stimulation with panel of CD1-transfected APCs (TNF-α release) (CD1b; THP-1 transfected with CD1A, CD1B or CD1C)","CD1 restriction: inhibition of clone reactivity by anti-CD1 mAbs (TNF-α release) (CD1b; mAbs at 10 μg/ml, 30 min before T cells)","IFN-γ release after stimulation, mean average [1] [pg/mL]","IFN-γ release after stimulation, mean average ([1]; 10 μg/ml, 6 days) [pg/mL]","effect of blocking antibodies against type 1 CD1 molecules on induced IFN-γ secretion ([1]; PPD-positive healthy donors, CD1 blocking antibodies 10 μg/ml each)","IFN-γ release after stimulation ([1]; naïve, PPD-negative donors (n=10), 10 μg/ml, 6 days)","IFN-γ release after stimulation ([1]; tuberculosis patients (n=11), 10 μg/ml, 6 days)",immunogenicity when APCs infected with living M. tuberculosis (IFN-γ release by Z5B71) [2]
(R)-1-O-mycoloyl-glycerol (3-O-mycoloyl-sn-glycerol) [s(R)-GroMM],stimulated the Z5B71 T cells more efficiently than the s(S)-GroMM,–,–,–,–,–,–,–,–,–
(S)-1-O-mycoloyl-glycerol (1-O-mycoloyl-sn-glycerol) [s(S)-GroMM],s(R)-GroMM stimulated the Z5B71 T cells more efficiently than the s(S)-GroMM,–,–,–,–,–,–,–,–,–
glycerol monomycolate [GroMM],intermediate activity,very similar T cell response,Only CD1b-expressing cells were able to stimulate T cells,only anti-CD1b mAbs were capable of inhibiting the reactivity of the clone,117,73,abrogated the reactivity,no response,no IFN-γ secretion above background levels,highly immunogenic
